# Like-named read-outs stand apart in the source and are kept apart here.
# What was measured:
# [1] = type: physicochemical
# μ-opioid receptor = target: T1, μ-opioid receptor (Homo sapiens, UniProt P35372); assay: biochemical; type: binding
# T1 construct: expressed in transfected cells; host or cells: HEK-293 cells
# [2] = male, Sprague-Dawley, rat, in vivo, 20 mg/kg
# T1 sequence (P35372 whole entry): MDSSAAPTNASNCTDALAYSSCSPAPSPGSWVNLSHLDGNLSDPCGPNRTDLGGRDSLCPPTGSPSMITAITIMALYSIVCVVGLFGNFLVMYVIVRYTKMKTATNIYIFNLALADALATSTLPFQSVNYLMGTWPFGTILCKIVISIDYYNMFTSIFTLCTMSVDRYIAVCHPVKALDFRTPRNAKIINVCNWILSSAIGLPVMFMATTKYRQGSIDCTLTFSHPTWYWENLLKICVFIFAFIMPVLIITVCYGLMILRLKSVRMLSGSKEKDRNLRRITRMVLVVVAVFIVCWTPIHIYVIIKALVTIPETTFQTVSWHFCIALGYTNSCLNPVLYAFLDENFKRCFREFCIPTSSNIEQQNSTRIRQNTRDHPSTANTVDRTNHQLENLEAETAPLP
structure (smiles),measurement,setting,value
CN(CCN)C(=O)Oc1ccc(C[N+]2(C)CC[C@]34c5c6ccc(O)c5OC3C(=O)CCC4[C@H]2C6)cc1.Cl.[Cl-] (stereo partly shown) [Compound A],% production of hydromorphone 20 hrs,[1]; pH 7.5,70%
same,% production of hydromorphone 20 hrs,[1]; pH 10,100%
CN(CCNC(=O)[C@@H](N)CCCNC(=N)N)C(=O)Oc1ccc(C[N@@+]2(C)CC[C@]34c5c6ccc(O)c5O[C@H]3C(=O)CC[C@H]4[C@H]2C6)cc1 [Example 1],IC50,μ-opioid receptor,250 nM
COc1ccc2c3c1O[C@H]1C(=O)CC[C@H]4[C@@H](C2)N(C)CC[C@]314 [Hydrocodone],Cmax HC (ng/ml) following PO dosing,[2],23.6 ng/mL

# Source: patent publication US20120142718A1 (priority 2007, published 2012)
